# “Also recorded” adds a separate entry of the source.
# How the values were obtained:
# [1] = tested on: evoked neuronal activity flow from the dentate gyrus to area CA1; assay: Voltage-sensitive dye imaging (VSDI) in VH slices; parameters: species or system mouse; details: bath application of NPS 1 μM
# Description: According to Maggio and Segal (2007) and Fanselow and Dong (2010), VSDI experiments were conducted in the VH. Horizontal brain slices (350 μm-thick) were prepared as described in Refojo et al., 2011 and/or von Wolff et al., 2011). Only the first two slices from the ventral surface of the brain in which the CA1 region was clearly visible were used for the measurements. Staining of slices with the voltage-sensitive dye Di-4-ANEPPS and VSDI were carried out at room temperature (23-25° C.). For staining, slices were kept for 15 min in carbogenated (95% O2/5% CO2) ACSF containing Di-4-ANEPPS (7.5 μg/mL; <0.1% DMSO). The ACSF (pH 7.4) consisted of (in mM): 125 NaCl, 2.5 KCl, 25 NaHCO3, 1.25 NaH2PO4, 2 CaCl2, 1 MgCl2, and 25 glucose. Afterwards, slices were stored for at least 30 min in pure carbogenated ACSF. In the recording chamber, slices were continuously superfused with carbogenated ACSF (3 mL/min flow rate). VSDI and data analysis were performed using the MiCAM02 hard- and software package (BrainVision, Tokyo, Japan). The tandem-lens fluorescence microscope was equipped with the MiCAM02-HR camera and the 2× and 1× lens at the objective and condensing side, respectively. Acquisition settings were: 88×60 pixels frame size, 36.4×40.0 μm pixel size, and 2.2 ms sampling time. To reduce noise, four acquisitions subsequently recorded at intervals of 5 s were averaged. Neuronal activity was evoked by square pulse electrical stimuli (200 μs, 15-20 V) delivered to the dentate gyrus granule cell layer via a custom-made monopolar tungsten electrode (Teflon-insulated to the tip of 75 μm diameter). From recorded signals, the fractional change in fluorescence (ΔF/F) was calculated. For all quantifications, ΔF/F values were spatially and temporally smoothed using a 3×3×3 average filter. VSDI signals presented in images were smoothed with a 5×5×3 average filter. Pixelation of images was reduced by the interpolation function of the MiCAM02 software. […]
# C57BL/6N mice [2] = assay: Elevated plus maze after bilateral NPS injection into CA1 of the VH; format: in vivo, mouse; details: 0.1 nmol NPS each side into CA1 of VH, 30 min
# Description: (§1) Animals were fixed in a stereotactic frame and maintained under isoflurane anesthesia (Forene® 100%, V/V; induction: 2.5%; maintenance: 1.5%; in O2; flow rate: 1 L/min). The mice received acute analgesic treatment with Metacam s.c. during surgery (0.5 mg/kg; in NaCl). 23 gauge stainless-steel guide cannulas were implanted in the CA1 region of the VH at the following coordinates: 3.1 mm posterior, ±3 mm lateral from bregma, and 2 mm ventral from the skull surface (Franklin and Paxinos, 2007). The guide cannulas were fixed with two screws and a two-component adhesive. For behavioural experiments, animals were implanted bilaterally for later bilateral injection, whereas for Cy3-NPS injections, implantation was performed unilaterally. The animals were allowed to recover for at least 6 days before starting the behavioural experiments. Substance infusions were carried out manually, on mice anesthetised by brief inhalation of isoflurane, using a 30 gauge injection cannula connected to a Tygon tube and a 10 μL Hamilton syringe. After infusion, the injection cannula was kept in place for additional 30 s to prevent substance outflow.
# Mice were injected bilaterally either with 0.1 nmol NPS in 0.5 μL ACSF for each side or with 0.5 μL of ACSF for each side. 30 min after injection, three behavioural assays [open field, dark-light test, and elevated plus maze (EPM)] were performed sequentially in the order mentioned. Each test lasted 5 min, with a 5 min break in between, as described in Kromer et al., 2005 and Bunck et al., 2009. Animal behaviour was videotaped and relevant parameters were analysed using the tracking software ANY-maze version 4.30 (Stoelting, Wood Dale, Ill., USA). Mice were sacrificed 24 h after completion of behavioural assays and the locations of the guide cannulas were checked in histological cryosections of 40 μm counterstained with DAPI. Mice with deviating injection sites were excluded from further analysis.
# Bl6 and HAB mice [3] = assay: Dark-light test after intranasal NPS; format: in vivo, mouse; details: for time spent in the light chamber / total distance traveled: intranasal, 4 hrs
# Description: (§2) Behavioural tests (open field, dark-light test and elevated plus maze (EPM)) following intranasal NPS application were performed sequentially. Each test lasted for 5 min with an inter-test interval of 5 min, as described previously (Bunck et al., 2009; Krömer et al., 2005). The animals' behaviour during testing was videotaped and relevant parameters were analysed with the tracking software ANY-maze version 4.30 (Stoelting, Wood Dale, Ill., USA). Native NPS (1 μg/μL) or vehicle (Ringer solution) were administered intranasally to the alert mouse as described above (total volume: 14 μL). Mice were tested 30 min and 4 hrs after intranasal administration of first drop. Animals were sacrificed 24 hrs after treatment and prefrontal cortex and bilateral hippocampi were prepared immediately and shock-frozen in methylbutane.
# (§3) After having ascertained that nasally administered NPS reaches its target cells, anxiolytic effects of NPS were established for this transnasal delivery method. For this purpose, nasally 6.36 nmol NPS per mouse was administered to two mouse strains, Bl6 and HAB (high anxiety behaviour) mice. HAB animals, a mouse strain inbred for pathologically high anxiety, were chosen together with Bl6 mice to allow differentiation between the temporary condition of state anxiety and the general condition of trait anxiety (Bunck et al., 2009; Kromer et al., 2005). To accurately characterise the anxiety-relieving properties of NPS in these two mouse strains, three standardised behavioural assays measuring anxiolytic effects at two different time points after intranasal NPS administration were performed. In each test, the effects of intranasal NPS versus vehicle treatment on both anxiety- and locomotion-related indices were examined.
# C57BL/6N mice [4] = assay: Open field after bilateral NPS injection into CA1 of the VH; format: in vivo, mouse; details: 0.1 nmol NPS each side into CA1 of VH, 30 min
# Description: as §1, with “After infusion, the injection cannula was kept in place for additional 30 s to prevent substance outflow.” left out
# Mice were injected bilaterally either with 0.1 nmol NPS in 0.5 μL ACSF for each side or with 0.5 μL of ACSF for each side. […] Animal behaviour was videotaped and relevant parameters were analysed using the tracking software ANY-maze version 4.30 (Stoelting, Wood Dale, Ill., USA). […]
# Bl6 and HAB mice [5] = assay: Open field after intranasal NPS; format: in vivo, mouse
# Description: as §2, §3
# [6] = Bl6 and HAB mice, intranasal 6.36 nmol per mouse, 30 min
substance,measurement,setting,value
"neuropeptide S (SFRNGVGSGVKKTSFRRAKQ; Neuropeptide S; UniProt P0C0P7 70-89, looked up) [NPS, peptide agonist of neuropeptide S receptor (NPSR); native NPS, rat, from Bachem]",activity flow from the dentate gyrus to the CA1 subfield,[1],rapidly weakened
same,FDS peak amplitudes,"[1]; dentate hilus, CA3 region, area CA1","reduced the amplitude of FDSs in the dentate hilus, the CA3 region, and area CA1; also recorded: decreased FDS peak amplitudes"
same,anxiety-related behaviour on the EPM,C57BL/6N mice [2],significant anxiolytic effect; also recorded: decreased anxiety-related behaviour
same,increase in the percentage of time spent on the open arms compared to vehicle-treated mice,C57BL/6N mice [2],28%
same,locomotion on the EPM,C57BL/6N mice [2],did not affect locomotion; also recorded: without affecting locomotion
same,behavioural differences versus vehicle in dark-light test,Bl6 and HAB mice [3]; [6],no behavioural differences
same,time spent in the light chamber,Bl6 and HAB mice [3]; Bl6 mice,did not differ significantly
same,total distance traveled,Bl6 and HAB mice [3]; Bl6 mice,did not differ significantly
same,time spent in the light chamber,Bl6 and HAB mice [3]; HAB mice,significantly increased
same,total distance traveled,Bl6 and HAB mice [3]; HAB mice,unaffected
same,distance traveled / locomotion in the open field,C57BL/6N mice [4],did not affect locomotion; also recorded: not changed
same,behavioural differences versus vehicle in open field,Bl6 and HAB mice [5]; [6],no behavioural differences
same,any parameter examined in the open field,"Bl6 and HAB mice [5]; Bl6 mice, intranasal, 4 hrs",no effect
same,any parameter tested in the open field,"Bl6 and HAB mice [5]; HAB mice, intranasal, 4 hrs",no differences
